Reference: patent publication US20260345582A1, “PRODRUG FOR ANTI-AGING RELATED DISEASES AND USE METHOD THEREOF” (Beijing SunCell Bio-Medical Co., Ltd., priority 2022, published 2026)

How the values were obtained:
[1] = biological target: E. coli-derived β-galactosidase (Escherichia coli, UniProt P00722); test: in vitro enzymatic hydrolysis of the prodrug by β-galactosidase (HPLC); format: biochemical; settings: role: substrate, 10 μM, β-galactosidase 10 U/μM, PBS 0.01 M pH 7.3, 37 °C, 6 hours, FIG. 2C
Sequence of E. coli-derived β-galactosidase (P00722 whole entry): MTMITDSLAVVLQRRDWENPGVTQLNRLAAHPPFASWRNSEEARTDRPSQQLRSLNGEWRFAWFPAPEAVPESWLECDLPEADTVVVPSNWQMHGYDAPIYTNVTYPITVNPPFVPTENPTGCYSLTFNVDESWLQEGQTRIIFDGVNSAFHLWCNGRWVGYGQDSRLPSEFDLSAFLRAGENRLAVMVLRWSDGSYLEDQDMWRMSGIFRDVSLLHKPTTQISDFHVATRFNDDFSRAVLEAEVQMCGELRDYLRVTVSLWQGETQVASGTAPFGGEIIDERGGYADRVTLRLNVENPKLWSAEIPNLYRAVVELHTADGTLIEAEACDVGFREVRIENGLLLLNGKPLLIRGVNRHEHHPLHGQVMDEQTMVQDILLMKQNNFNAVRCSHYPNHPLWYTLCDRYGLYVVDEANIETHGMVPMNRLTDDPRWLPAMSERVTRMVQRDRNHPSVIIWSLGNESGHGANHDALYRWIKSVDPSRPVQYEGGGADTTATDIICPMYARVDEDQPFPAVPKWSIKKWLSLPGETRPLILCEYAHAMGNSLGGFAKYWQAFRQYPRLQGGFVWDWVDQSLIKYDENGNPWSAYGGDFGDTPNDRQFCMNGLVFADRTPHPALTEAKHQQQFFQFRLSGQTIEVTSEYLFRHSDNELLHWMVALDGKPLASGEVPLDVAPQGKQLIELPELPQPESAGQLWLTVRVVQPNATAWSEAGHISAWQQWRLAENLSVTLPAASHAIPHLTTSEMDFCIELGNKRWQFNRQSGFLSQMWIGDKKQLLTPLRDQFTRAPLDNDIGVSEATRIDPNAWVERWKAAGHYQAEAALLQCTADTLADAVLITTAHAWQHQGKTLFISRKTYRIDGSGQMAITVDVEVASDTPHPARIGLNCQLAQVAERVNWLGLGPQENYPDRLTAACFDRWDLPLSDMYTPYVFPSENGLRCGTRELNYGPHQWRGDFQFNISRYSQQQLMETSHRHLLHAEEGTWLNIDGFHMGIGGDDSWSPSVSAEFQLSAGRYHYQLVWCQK
Procedure: Study of the Hydrolysis Reaction of A13bG
The in vitro enzymatic hydrolysis reaction was carried out using E. coli-derived β-galactosidase (Sigma) in PBS solution (0.01 M, pH 7.3) at a reaction concentration of 10 μM for both A13 and A13bG, and for 6 hours at 37 °C after the addition of β-galactosidase (10 U/μM). The hydrolysis reaction was monitored by the high performance liquid chromatography (HPLC). The compound A13 and the prodrug A13bG without enzyme reaction were analyzed by HPLC at the same conditions as the references. The chromatographic column model: Waters Acquity BEH C4, the conditions: 0.04 ml/min, (water (0.1% acetic acid)): the acetonitrile gradient elution: 98:2 1 min, 5:95 13 min, 5:95 18 min, 2:98 20 min.

[2] = test system: normal cells (HEF, HELF, A549, MRC5, BJ, HUVEC); test: in vitro toxicity to normal (non-senescent) cells, multiple cell models (CCK-8); format: cell-based, human; settings: especially some cells of primary origins sensitive to Bcl-xL inhibition
Excerpt: (§1) Induction of the Cellular Senescence

[3] = test system: HUVEC cells (human umbilical vein endothelial cell line); test: in vitro killing of induced senescent HUVEC cells (CCK-8); format: cell-based; settings: vascular endothelial-derived, FIG. 3F
Excerpt: as §1

[4] = test system: mouse model of Bleomycin-induced pulmonary fibrosis; test: Bleomycin-induced pulmonary fibrosis model, overall therapeutic effect; format: in vivo, C57 mice; settings: 5 mg/kg i.p., four weeks
Procedure: A. Modelling of a mouse model of Bleomycin-induced pulmonary fibrosis, and the schematic diagram of treatment. Mice were modelled with Bleomycin administered via tracheal instillation on day 0, and the treatment with intraperitoneal injection of the drug was started on day 4. The drug was administered for 3 consecutive days per week, followed by a 4-day withdrawal, for 4 weeks.
All drugs were mixed in 85% physiological saline, 5% DMSO (Sigma, D8418) and 10% Solutol HS 15 (Sigma, 42966), and administered to mice by intraperitoneal (i.p.) injection. To treat the bleomycin-injured young mice, A13 (2 mg/kg), A13bGa1 (5 mg/kg), or an empty vehicle control was administered three consecutive days per week for four weeks. A1331852 (abbreviated as A13) was purchased from MCE.
Bleomycin-Induced Pulmonary Fibrosis
Bleomycin was purchased from Selleck. As previously reported (Bivas-Benita et al., Eur J Pharm Biopharm 61, 214-218 (2005)), a transtracheal injection of bleomycin (2 mg/kg) was performed to the young male C57 mice (8-10 weeks old) to induce lung fibrosis. Drug treatment was initiated four days after modelling, and the drug was administered three consecutive days per week for four consecutive weeks, after which the mice were executed for material collection.

[5] = plasma metabolic stability, mouse; format: in vitro ADME; settings: 120 min
Procedure: Plasma Metabolic Stability
Termination of the reaction was accomplished by the addition of 3× volume of acetonitrile and centrifugation at 16000 g for 20 minutes. The supernatant was taken for a LC-MS/MS analysis. The chromatographic column: Waters XSelect HSS T3; the flow rate: 500 μL/min; the eluent: A, water (0.1% formic acid); B, acetonitrile (0.1% formic acid); the gradient elution: 0-1.5 min, 5% B, 1.5-9 min, 5%-80% B, 9-12 min, 80%-100% B, 12-14 min, 100% B, 14-14.3 min, 100%-5% B, 14.3-15 min, 5% B.

SMILES: Cc1c(-c2ccc(N3CCc4cccc(C(=O)Nc5nc6ccccc6s5)c4C3)nc2C(=O)OCc2ccc(O[C@@H]3O[C@H](CO)[C@H](O)[C@H](O)[C@H]3O)c([N+](=O)[O-])c2)cnn1CC12CC3CC(CC(C3)C1)C2 [Compound A13bGa1]
- hydrolysis under the action of β-gal enzyme, release of the parent compound A13 [1]: hydrolysed under the action of β-gal enzyme to release the parent compound A13
- toxicity to the normal cells compared with the parent compound A13 [2]: greatly reduced
- killing of the senescent cells, efficiency and selectivity [3]: highly efficient and selective in killing the senescent cells
- anti-inflammatory and anti-fibrotic therapeutic effects [4]: good anti-inflammatory and anti-fibrotic therapeutic effects
- metabolised at 2 h, 10 µM ([5]; 10 μM prodrug, read-out: The peak area after normalisation at minute 120, oxidative dehydrogenation metabolite): 0.04%
- remaining at 2 h, 10 µM ([5]; 10 μM, read-out: The peak area after normalisation at minute 120, initial drug): 100%
